{
  "source": "patent US11759480B2",
  "about": "“Compositions and methods for CAR T cell therapy” (ENDOCYTE, INC., priority 2017, dated 2023)",
  "key": {"[1]": {"test_system": "THP-1-FRβ tumors", "test": "EC17/CAR-T therapy in folate receptor-β positive acute myeloid leukemia model (Example 44)", "format": "in vivo", "from_the_text": "THP-1-FRβ tumors were generated by intravenous implantation of cultured cells at 5×10^6 per animal in 9 NSG mice.\nStarting 11 days post tumor implantation, ˜8.3 million of GFP+4M5.3 CAR-T cells were intravenously infused into each mouse. Mice were divided into 3 groups (n=3): (1) CAR-T cell alone, (2) CAR-T cells with weekly EC17 doses at 500 nmol/kg, and (3) CAR-T cells with weekly EC17 doses at 500 nmol/kg plus sodium fluorescein rescue when needed. The first EC17 dose was given two days after CAR-T cell administration. All EC17 doses were given towards the end of day (˜3-4 PM) to allow cytokine release syndrome (CRS) to develop overnight. […] No additional sodium fluorescein rescue was given for additional EC17 dosing in Group 3. Mice were weighed and monitored for sign of health and disease development. […] Upon euthanasia, all mice were subject to gross examination for the presence of tumor masses. All visible tumor masses were excised, counted and weighed. Blood, tumor metastases (mets) and normal adjacent tissues were collected for same-day flow cytometry analysis.\nPlasma was removed from predetermined volumes of whole EDTA treated blood with a 10-minute 4° C. spin at 3000×g and the resulting cell pellets were incubated with a 10-fold volume of room temperature 1×RBC lysis solution (prepared from 10× stock; Biolegend, catalog #420301) for 5 minutes, centrifuged at 400×g for 5 min. The cell pellets were washed in a 10-fold volume of ice-cold phosphate-buffered saline (PBS, pH=7.4 and filtered with a 40 μm nylon filter then pelleted again. The leukocyte cell pellets were then resuspended in a flow cytometry staining solution (1% bovine serum albumin, […] human IgG (Equitech Bio, cat #SLH56-0001), 0.9% sodium azide in PBS, pH=7.4) supplemented with both anti-mouse FcγIII/II receptor (CD16/CD32) block (clone 2.4G2; BD Bioscience, catalog #553142 at 1:100 (v/v) dilution) and anti-human Fc Block (BD Biosciences, catalog #564220 at 1:50 (v/v) dilution). Surface marker staining was performed with the addition of the following fluorochrome conjugated monoclonal antibodies added to each sample for 20 minutes on ice in the dark: anti-human CD45-APCeF780 (clone HI30, eBioscience #47-0459-42 at 1:20 (v/v) dilution), anti-human CD3-BV650 (clone SK7, BD Bioscience, catalog #563999 at 1:20 (v/v) dilution), anti-human CD137-BV650 (clone 4B4-1, BD Bioscience #564092 at 1:20 (v/v) dilution), anti-human CD8α-PECy7 (clone RPA-T8, BD Bioscience, catalog #557746 at 1:20 (v/v) dilution), anti-human CD4-Percpe710 (clone SK3, eBioscience catalog #46-0047-42 at 1:20 (v/v) dilution), anti-human CD25-PE (clone M-A251, BD Bioscience, catalog #555432 at 1:10 (v/v) dilution), anti-human CD33-PE (clone WM53, BD Bioscience, catalog #555450 at 1:5 (v/v) dilution), anti-human CD123-AF647 (clone 9F5, BD Bioscience, catalog #563599 at 1:20 (v/v) dilution). Biotinylated anti-human folate receptor-β (clone m909) was kindly provided by the Low lab at Purdue University (Arthritis Res Ther. 2011; 13(2):R59) and detected using streptavidin-eFluor660 (eBioscience, catalog #50-4317 at 1:1000 (v/v) dilution). Folic acid binding was interpreted as a measure of functional folate receptor and was determined by incubation with an Alexa Fluor conjugated folic acid which was synthesized in house. After leukocyte staining, cells were washed with PBS and resuspended in cold PBS containing 3 μM propidium idodide. Flow cytometry data was collected on the Gallios flow cytometer (Beckman Coulter, Brea, Calif.), where a minimum of 15,000 CountBright™ bead events were collected in an attempt to collect enough leukocyte events for an accurate count of infused CAR T cells in each mouse blood sample. Determination of the concentration of CAR T cells in each blood sample was calculated according to Invitrogen's instructions. Briefly, CAR T cells were identified as human CD45+ GFP+ events and easily distinguished and counted using the Kaluza™ flow cytometry software version 1.5. […]"}, "[2]": {"test_system": "MDA-MB-231 tumors", "test": "Host mouse cytokines after NaFL rescue (Example 48)", "format": "in vivo, NSG mice", "protocol": "In the first part of the study (FIG. 75), mice were treated with EC17 and FITC-CAR-T cells. When mice started to show sCRS, one dose of 60 umol/kg NaFL was injected for rescue. Mouse blood samples were then collected at both 7 hours and 27 hours post NaFL rescue. Mouse cytokine levels in blood were analyzed using a mouse inflammation panel kit (Cat. No. 740446) from BioLegend by following the manufacturer's instructions. FIGS. 76 A-E show cytokine levels 7 hours post rescue. FIGS. 77A-C show cytokine levels 27 hours post rescue.\nIn the second part of the study, a series of concentrations of NaFL were tested for their rescue efficiency (FIG. 78). As shown in FIGS. 79-81, mice cytokine levels in blood were also dependent on the concentrations of sodium fluorescein used for rescue, and the median effective dose is about 0.6 μmol/kg with cytokines tested (e.g. MCP-1, IL-6, and IL-10) and the mice started to respond as early as 3 hours post rescue."}},
  "data": [
    {"smiles": "Nc1nc2ncc(CNc3ccc(C(=O)NC(CCC(=O)NCCNC(=S)Nc4ccc(-c5c6ccc(=O)cc-6oc6cc(O)ccc56)c(C(=O)O)c4)C(=O)O)cc3)nc2c(=O)[nH]1", "note": "(centres unmarked) [EC17, FITC-Folate]", "values": [
      {"measurement": "GFP+ leukemic cells in blood", "setting": "[1]; 500 nmol/kg SIW for 4 weeks, day 34 post CAR-T infusion", "value": "nearly undetectable in the blood"},
      {"measurement": "CRS grade", "setting": "[1]; morning after first EC17 dose 500 nmol/kg, ~8.3 million CAR-T", "value": "~3", "unit": "grade"},
      {"measurement": "persistence of anti-leukemia activity post CAR T cell infusion", "setting": "[1]; mouse, in vivo", "value": 47, "unit": "days"},
      {"measurement": "EC17-treated mice with minimum tumor load at collection", "setting": "[1]; weekly 500 nmol/kg, +/- one-time sodium fluorescein rescue", "value": "five out of the 6"},
      {"measurement": "CAR T cell phenotype", "setting": "[1]; weekly injections of EC17", "value": "central memory/effector memory phenotype"},
      {"measurement": "mouse cytokine levels in blood (MCP-1, IL-6, IL-10, IFN-β, TNF-α)", "setting": "[2]; EC17 dosed versus CAR-T without EC17", "value": "increased mouse cytokine levels"}
    ]},
    {"smiles": "O=C([O-])c1ccccc1-c1c2ccc(=O)cc-2oc2cc([O-])ccc12.[Na+].[Na+]", "note": "[sodium fluorescein]", "values": [
      {"measurement": "recovery from CRS", "setting": "[1]; 6 μmol/kg, Group 3", "value": "completely recovered"},
      {"measurement": "CAR T cell functionality after rescue", "setting": "[1]; mouse #10, rescue after first EC17 dose", "value": "CAR T cell functionality was preserved"},
      {"measurement": "mouse cytokine levels in blood", "setting": "[2]; 60 μmol/kg, 7 hours and 27 hours post rescue", "value": "much lower than those in un-rescued mice"},
      {"measurement": "earliest response post rescue", "setting": "[2]; mouse, in vivo", "value": 3, "unit": "h"},
      {"measurement": "median effective dose (mouse MCP-1, IL-6, IL-10)", "setting": "[2]; mouse, in vivo", "value": "about 0.6 μmol/kg"}
    ]}
  ]
}
